Assay [1] has as its system Cabbage Looper (Trichoplusia ni) ("CL"), second instar larvae. Nature of the assay: Bioassay on cabbage looper (CL), 128-well diet tray assay. Format: in vivo. As to conditions: Trichoplusia ni, read-out: CL (Biological Results, rating). Summed up: (§1)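 Each value represents average percent mortality from eight wells. Larvae were kept in clear-covered trays at 25° C. for five to seven days on a 14-hour light, 10-hour dark schedule before scoring.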

Assay [2] has as its system Beet Armyworm (Spodoptera exigua) ("BAW"), second instar larvae. Nature of the assay: Bioassay on beet armyworm (BAW), 128-well diet tray assay. Format: in vivo. As to conditions: Spodoptera exigua, read-out: BAW (Biological Results, rating). Summed up: as §1

For `CCOCc1ccc(C)cc1N1C(=O)CS/C1=N\C(=O)Nc1ccc(-c2ncn(-c3ccc(SC(F)(F)F)cc3)n2)cc1C` [Compound J205, (Z)-1-(3-(2-(Ethoxymethyl)-5-methylphenyl)-4-oxothiazolidin-2-ylidene)-3-(2-methyl-4-(1-(4-((trifluoromethyl)thio)phenyl)-1H-1,2,4-triazol-3-yl)phenyl)urea], the pest or weed control at 50 µg/cm2 in assay [1] and in assay [2] was 50 to 100% in each case.

On to `CCOCc1ccc(C)cc1N1C(=O)CS/C1=N\C(=O)Nc1ccc(-c2ncn(-c3ccc(OC(F)(F)F)cc3)n2)cc1C` [Compound J206, (Z)-1-(3-(2-(Ethoxymethyl)-5-methylphenyl)-4-oxothiazolidin-2-ylidene)-3-(2-methyl-4-(1-(4-(trifluoromethoxy)phenyl)-1H-1,2,4-triazol-3-yl)phenyl)urea], for which the pest or weed control at 50 µg/cm2 in assay [1] and in assay [2] was 50 to 100% each time.

On to `Cc1ccc(C(C)C)c(N2C(=O)CS/C2=N\C(=O)Nc2ccc(-c3ncn(-c4ccc(OC(F)(F)F)cc4)n3)cc2C(F)F)c1` [Compound J211, (Z)-1-(2-(Difluoromethyl)-4-(1-(4-(trifluoromethoxy)phenyl)-1H-1,2,4-triazol-3-yl)phenyl)-3-(3-(2-isopropyl-5-methylphenyl)-4-oxothiazolidin-2-ylidene)urea], for which the pest or weed control at 50 µg/cm2 in assay [1] and in assay [2] was 50 to 100% each time.

With `Cc1ccc(OCC(F)(F)F)c(N2C(=O)CS/C2=N\C(=O)Nc2ccc(-c3ncn(-c4ccc(OC(F)(F)F)cc4)n3)cc2C(F)F)c1` [Compound J212, (Z)-1-(2-(Difluoromethyl)-4-(1-(4-(trifluoromethoxy)phenyl)-1H-1,2,4-triazol-3-yl)phenyl)-3-(3-(5-methyl-2-(2,2,2-trifluoroethoxy)phenyl)-4-oxothiazolidin-2-ylidene)urea], the pest or weed control at 50 µg/cm2 in assay [1] and in assay [2] was 50 to 100% each time.

For the compound `CC(C)c1ccc(N(C)C)cc1N1C(=O)CS/C1=N\C(=O)Nc1ccc(-c2ncn(-c3ccc(OC(F)(F)F)cc3)n2)cc1C(F)F` [Compound J213, (Z)-1-(2-(Difluoromethyl)-4-(1-(4-(trifluoromethoxy)phenyl)-1H-1,2,4-triazol-3-yl)phenyl)-3-(3-(5-(dimethylamino)-2-isopropylphenyl)-4-oxothiazolidin-2-ylidene)urea], the pest or weed control at 50 µg/cm2 in assay [1] and in assay [2] was 50 to 100% throughout.

For `CCOCc1ccc(C)cc1N1C(=O)CS/C1=N\C(=O)Nc1ccc(-c2ncn(-c3ccc(OC(F)(F)F)cc3)n2)cc1C(F)F` [Compound J214, (Z)-1-(2-(Difluoromethyl)-4-(1-(4-(trifluoromethoxy)phenyl)-1H-1,2,4-triazol-3-yl)phenyl)-3-(3-(2-(ethoxymethyl)-5-methylphenyl)-4-oxothiazolidin-2-ylidene)urea], the pest or weed control at 50 µg/cm2 in assay [1] and in assay [2] was 50 to 100% each time.

For the compound `Cc1ccc(COCC(F)(F)F)c(N2C(=O)CS/C2=N\C(=O)Nc2ccc(-c3ncn(-c4ccc(OC(F)(F)F)cc4)n3)cc2C(F)F)c1` [Compound J215, (Z)-1-(2-(Difluoromethyl)-4-(1-(4-(trifluoromethoxy)phenyl)-1H-1,2,4-triazol-3-yl)phenyl)-3-(3-(5-methyl-2-((2,2,2-trifluoroethoxy)methyl)phenyl)-4-oxothiazolidin-2-ylidene)urea], the pest or weed control at 50 µg/cm2 in assay [1] and in assay [2] was 50 to 100% in each case.

Regarding `Cc1ccc(C(C)C)c(N2C(=O)CS/C2=N\C(=O)Nc2ccc(-c3ncn(-c4ccc(OC(F)(F)F)cc4)n3)cc2Br)c1` [Compound J217, (Z)-1-(2-Bromo-4-(1-(4-(trifluoromethoxy)phenyl)-1H-1,2,4-triazol-3-yl)phenyl)-3-(3-(2-isopropyl-5-methylphenyl)-4-oxothiazolidin-2-ylidene)urea], the pest or weed control at 50 µg/cm2 in assay [1] and in assay [2] was 50 to 100% each time.

Take `Cc1ccc(OCC(F)(F)F)c(N2C(=O)CS/C2=N\C(=O)Nc2ccc(-c3ncn(-c4ccc(OC(F)(F)F)cc4)n3)cc2Br)c1` [Compound J218, (Z)-1-(2-Bromo-4-(1-(4-(trifluoromethoxy)phenyl)-1H-1,2,4-triazol-3-yl)phenyl)-3-(3-(5-methyl-2-(2,2,2-trifluoroethoxy)phenyl)-4-oxothiazolidin-2-ylidene)urea]: the pest or weed control at 50 µg/cm2 in assay [1] and in assay [2] was 50 to 100% in each case.

With `CC(C)c1ccc(N(C)C)cc1N1C(=O)CS/C1=N\C(=O)Nc1ccc(-c2ncn(-c3ccc(OC(F)(F)F)cc3)n2)cc1Br` [Compound J219, (Z)-1-(2-Bromo-4-(1-(4-(trifluoromethoxy)phenyl)-1H-1,2,4-triazol-3-yl)phenyl)-3-(3-(5-(dimethylamino)-2-isopropylphenyl)-4-oxothiazolidin-2-ylidene)urea], the pest or weed control at 50 µg/cm2 in assay [1] and in assay [2] was 50 to 100% each time.

On to `COC(C)c1ccc(C)cc1N1C(=O)CS/C1=N\C(=O)Nc1ccc(-c2ncn(-c3ccc(OC(F)(F)F)cc3)n2)cc1Br` (stereo not shown) [Compound J220, (Z)-1-(2-Bromo-4-(1-(4-(trifluoromethoxy)phenyl)-1H-1,2,4-triazol-3-yl)phenyl)-3-(3-(2-(1-methoxyethyl)-5-methylphenyl)-4-oxothiazolidin-2-ylidene)urea], for which the pest or weed control at 50 µg/cm2 in assay [1] and in assay [2] was 50 to 100% each time.

Consider `CCOCc1ccc(C)cc1N1C(=O)CS/C1=N\C(=O)Nc1ccc(-c2ncn(-c3ccc(OC(F)(F)F)cc3)n2)cc1Br` [Compound J221, (Z)-1-(2-Bromo-4-(1-(4-(trifluoromethoxy)phenyl)-1H-1,2,4-triazol-3-yl)phenyl)-3-(3-(2-(ethoxymethyl)-5-methylphenyl)-4-oxothiazolidin-2-ylidene)urea], for which the pest or weed control at 50 µg/cm2 in assay [1] and in assay [2] was 50 to 100% in each case.

Regarding `Cc1ccc(COCC(F)(F)F)c(N2C(=O)CS/C2=N\C(=O)Nc2ccc(-c3ncn(-c4ccc(OC(F)(F)F)cc4)n3)cc2Br)c1` [Compound J222, (Z)-1-(2-Bromo-4-(1-(4-(trifluoromethoxy)phenyl)-1H-1,2,4-triazol-3-yl)phenyl)-3-(3-(5-methyl-2-((2,2,2-trifluoroethoxy)methyl)phenyl)-4-oxothiazolidin-2-ylidene)urea], the pest or weed control at 50 µg/cm2 in assay [1] and in assay [2] was 50 to 100% each time.

Turning to `Cc1ccc(COCC(F)(F)F)c(N2C(=O)CS/C2=N\C(=O)Nc2ccc(-c3ncn(-c4ccc(SC(F)(F)F)cc4)n3)cc2Cl)c1` [Compound J226, (Z)-1-(2-Chloro-4-(1-(4-((trifluoromethyl)thio)phenyl)-1H-1,2,4-triazol-3-yl)phenyl)-3-(3-(5-methyl-2-((2,2,2-trifluoroethoxy)methyl)phenyl)-4-oxothiazolidin-2-ylidene)urea], the pest or weed control at 50 µg/cm2 in assay [1] and in assay [2] was 50 to 100% each time.

Consider `Cc1ccc(C(C)C)c(N2C(=O)CS/C2=N\C(=O)Nc2ccc(-c3ncn(-c4ccc(OC(F)(F)F)cc4)n3)cc2C#N)c1` [Compound J227, (Z)-1-(2-cyano-4-(1-(4-(trifluoromethoxy)phenyl)-1H-1,2,4-triazol-3-yl)phenyl)-3-(3-(2-isopropyl-5-methylphenyl)-4-oxothiazolidin-2-ylidene)urea], for which the pest or weed control at 50 µg/cm2 in assay [1] and in assay [2] was 50 to 100% in each case.

As to `COC(C)c1ccc(C)cc1N1C(=O)CS/C1=N\C(=O)Nc1ccc(-c2ncn(-c3ccc(OC(F)(F)F)cc3)n2)cc1C#N` (stereo not shown) [Compound J228, (Z)-1-(2-Cyano-4-(1-(4-(trifluoromethoxy)phenyl)-1H-1,2,4-triazol-3-yl)phenyl)-3-(3-(2-(1-methoxyethyl)-5-methylphenyl)-4-oxothiazolidin-2-ylidene)urea], the pest or weed control at 50 µg/cm2 in assay [1] and in assay [2] was 50 to 100% throughout.

On to `COC(C)c1ccc(C)cc1N1C(=O)CS/C1=N\C(=O)Nc1ccc(-c2ncn(-c3ccc(SC(F)(F)F)cc3)n2)cc1C` (stereo not shown) [Compound J233, (Z)-1-(3-(2-(1-Methoxyethyl)-5-methylphenyl)-4-oxothiazolidin-2-ylidene)-3-(2-methyl-4-(1-(4-((trifluoromethyl)thio)phenyl)-1H-1,2,4-triazol-3-yl)phenyl)urea], for which the pest or weed control at 50 µg/cm2 in assay [1] and in assay [2] was 50 to 100% in each case.

As to `COC(C)c1ccc(C)cc1N1C(=O)CS/C1=N\C(=O)Nc1ccc(-c2ncn(-c3ccc(OC(F)(F)F)cn3)n2)cc1F` (stereo not shown) [Compound J236, (Z)-1-(2-Fluoro-4-(1-(5-(trifluoromethoxy)pyridin-2-yl)-1H-1,2,4-triazol-3-yl)phenyl)-3-(3-(2-(1-methoxyethyl)-5-methylphenyl)-4-oxothiazolidin-2-ylidene)urea], the pest or weed control at 50 µg/cm2 in assay [1] and in assay [2] was 50 to 100% each time.

With `Cc1ccc(COCC(F)(F)F)c(N2C(=O)CS/C2=N\C(=O)Nc2ccc(-c3ncn(-c4ccc(OC(F)(F)F)cn4)n3)cc2F)c1` [Compound J237, (Z)-1-(2-Fluoro-4-(1-(5-(trifluoromethoxy)pyridin-2-yl)-1H-1,2,4-triazol-3-yl)phenyl)-3-(3-(5-methyl-2-((2,2,2-trifluoroethoxy)methyl)phenyl)-4-oxothiazolidin-2-ylidene)urea], the pest or weed control at 50 µg/cm2 in assay [1] and in assay [2] was 50 to 100% each time.

In the case of `CC(C)c1ccc(N(C)C)cc1N1C(=O)CS/C1=N\C(=O)Nc1ccc(-c2ncn(-c3ccc(OC(F)(F)F)cn3)n2)cc1F` [Compound J238, (Z)-1-(3-(5-(Dimethylamino)-2-isopropylphenyl)-4-oxothiazolidin-2-ylidene)-3-(2-fluoro-4-(1-(5-(trifluoromethoxy)pyridin-2-yl)-1H-1,2,4-triazol-3-yl)phenyl)urea], the pest or weed control at 50 µg/cm2 in assay [1] and in assay [2] was 50 to 100% in each case.

The values are drawn from patent US20230077362A1 (CORTEVA AGRISCIENCE LLC, priority 2019, published 2023).
